Assay: Human microsome stability assay
Format: in vitro ADME
Conditions: 1 µM test compound, 0.5 mg/mL liver microsomal protein, 37 °C
Experimental: The human microsomal stability assay is used for early assessment of metabolic stability of a test compound in human liver microsomes.
Human liver microsomes (Cat.NO.: 452117, Corning, USA;Cat.NO.:H2610, Xenotech, USA) were preincubated with test compound for 10 minutes at 37 °C in 100 mM potassium phosphate buffer, pH 7.4. The reactions were initiated by adding NADPH regenerating system. The final incubation mixtures contained 1 µM test compound, 0.5 mg/mL liver microsomal protein, 1 mM MgClz, 1 mM NADP, 1 unit/mL isocitric dehydrogenase and 6 mM isocitric acid in 100 mM potassium phosphate buffer, pH 7.4. After incubation times of 0, 3, 6, 9, 15 and 30 minutes at 37 °C, 300 µL of cold acetonitrile (including internal standard) was added to 100 µL incubation mixture to terminate the reaction. Following precipitation and centrifugation, the amount of compound remaining in the samples were determined by LC-MS/MS. Controls of no NADPH regenerating system at zero and 30 minutes were also prepared and analyzed. […] Table 6. Human liver microsome stability of the compounds of present invention

SMILES | Clearance of Human microsome
C[C@@H]1CN(c2ccc(C#N)c3nccnc23)C[C@H](CN2CCN(c3cc4c(cn3)[C@H](C)NCC4)CC2)O1 (single isomer, unassigned) [Example 85] | 7.83 mL/min/kg
C[C@@H]1CN(c2ccc(C#N)c3ncccc23)C[C@H](CN2CCN(c3ccc4c(n3)CN[C@H]4C)CC2)O1 (single isomer, unassigned) [Example 63] | 6.15 mL/min/kg
C[C@@H]1CN(c2ccc(C#N)c3ncccc23)C[C@H](CN2CCN(c3ccc4c(n3)CNCC4)CC2)O1 [Example 69, 5-[(2R,6S)-2-methyl-6-[[4-(5,6,7,8-tetrahydro-1,7-naphthyridin-2-yl)piperazin-1-yl]methyl]morpholin-4-yl]quinoline-8-carbonitrile] | 6.23 mL/min/kg
C[C@@H]1CN(c2ccc(C#N)c3ncccc23)C[C@H](CN2CCN(c3ccc4c(c3)CCNC4CO)CC2)O1 (stereo partly drawn) [Example 24, 5-[(2S,6R)-2-[[4-[1-(hydroxymethyl)-1,2,3,4-tetrahydroisoquinolin-6-yl]piperazin-1-yl]methyl]-6-methyl-morpholin-4-yl]quinoline-8-carbonitrile] | 6.15 mL/min/kg
C[C@@H]1CN(c2ccc(C#N)c3ncccc23)C[C@H](CN2CCN(c3cnc4c(c3)CN[C@H]4C)CC2)O1 (single isomer, unassigned) [Example 67] | 6.15 mL/min/kg
C[C@@H]1CN(c2ccc(C#N)c3ncccc23)C[C@H](CN2CCN(c3ccc4c(c3)CNC4)CC2)O1 [Example 7, 5-[(2S,6R)-2-[(4-isoindolin-5-ylpiperazin-1-yl)methyl]-6-methyl-morpholin-4-yl] quinoline-8-carbonitrile] | 8.75 mL/min/kg
C[C@@H]1CN(c2ccc(C#N)c3ncccc23)C[C@H](CN2CCN(c3ccc(Cl)cc3)CC2)O1 [Example R2, 5-[(2S,6R)-2-[[4-(4-chlorophenyl)piperazin-1-yl]methyl]-6-methyl-morpholin-4-yl]quinoline-8-carbonitrile, reference compound] | 15.43 mL/min/kg
CC1NCc2cc(N3CCN(C[C@H]4CN(c5ccc(C#N)c6ncccc56)C[C@@H](C)O4)CC3)ccc21 (stereo partly drawn) [Example 28, 5-[(2R,6S)-2-methyl-6-[[4-(1-methylisoindolin-5-yl)piperazin-1-yl]methyl]morpholin-4-yl]quinoline-8-carbonitrile] | 6.15 mL/min/kg
C[C@@H]1Cc2cc(N3CCN(C[C@H]4CN(c5ccc(C#N)c6nccnc56)C[C@@H](C)O4)CC3)ncc2CN1 (single isomer, unassigned) [Example 83] | 8.31 mL/min/kg
C[C@@H]1CN(c2ccc(C#N)c3nccnc23)C[C@H](CN2CCN(c3ccc4c(n3)CN[C@H]4C)CC2)O1 (single isomer, unassigned) [Example 78] | 7.50 mL/min/kg
C[C@@H]1CN(c2ccc(C#N)c3ncccc23)C[C@H](CN2CCN(c3ccc4c(c3)CNC4)C(CO)C2)O1 (stereo partly drawn) [Example 13, 5-[(2S,6R)-2-[[3-(hydroxymethyl)-4-isoindolin-5-yl-piperazin-1-yl]methyl]-6-methyl-morpholin-4-yl]quinoline-8-carbonitrile] | 8.00 mL/min/kg
C[C@@H]1CN(c2ccc(C#N)c3nccnc23)C[C@H](CN2CCN(c3cc4c(cn3)CCNC4)CC2)O1 [Example 80, 8-[(2R,6S)-2-methyl-6-[[4-(5,6,7,8-tetrahydro-2,6-naphthyridin-3-yl)piperazin-1-yl]methyl]morpholin-4-yl]quinoxaline-5-carbonitrile] | 6.15 mL/min/kg
C[C@@H]1CN(c2ccc(C#N)c3ncccc23)C[C@H](CN2CCN(c3cnc4c(c3)CCNC4)CC2)O1 [Example 23, 5-[(2R,6S)-2-methyl-6-[[4-(5,6,7,8-tetrahydro-1,7-naphthyridin-3-yl)piperazin-1-yl]methyl]morpholin-4-yl]quinoline-8-carbonitrile] | 6.15 mL/min/kg
C[C@@H]1CN(c2ccc(C#N)c3ncccc23)C[C@H](CN2CCN(c3ccc4c(c3)C(O)CNC4)CC2)O1 (stereo partly drawn) [Example 22, 5-[(2S,6R)-2-[[4-(4-hydroxy-1,2,3,4-tetrahydroisoquinolin-6-yl)piperazin-1-yl]methyl]-6-methyl-morpholin-4-yl]quinoline-8-carbonitrile] | 6.82 mL/min/kg

Now from value to compound:

Clearance of Human microsome | SMILES
6.15 mL/min/kg | C[C@@H]1CN(c2ccc(C#N)c3nccnc23)C[C@H](CN2CCN(c3cc4c(cn3)C[C@H](C)NC4)CC2)O1 (single isomer, unassigned) [Example 81]
7.55 mL/min/kg | C[C@@H]1Cc2cc(N3CCN(C[C@H]4CN(c5ccc(C#N)c6ncccc56)C[C@@H](C)O4)CC3)ncc2CN1 (single isomer, unassigned) [Example 70]
6.15 mL/min/kg | C[C@@H]1CN(c2ccc(C#N)c3ncccc23)C[C@H](CN2CCN(c3cc4c(cn3)C[C@H](C)NC4)CC2)O1 (single isomer, unassigned) [Example 76]
6.43 mL/min/kg | C[C@@H]1CN(c2ccc(C#N)c3ncccc23)C[C@H](CN2CCN(c3cc4c(cn3)CCNC4)CC2)O1 [Example 20, 5-[(2R,6S)-2-methyl-6-[[4-(5,6,7,8-tetrahydro-2,6-naphthyridin-3-yl)piperazin-1-yl]methyl]morpholin-4-yl]quinoline-8-carbonitrile]
8.84 mL/min/kg | C[C@@H]1Cc2cnc(N3CCN(C[C@H]4CN(c5ccc(C#N)c6nccnc56)C[C@@H](C)O4)CC3)cc2CN1 (single isomer, unassigned) [Example 82]
7.39 mL/min/kg | C[C@@H]1CN(c2ccc(C#N)c3ncccc23)C[C@H](CN2CCN(c3cc4c(cn3)CCN[C@@H]4C)CC2)O1 (single isomer, unassigned) [Example 74]
6.34 mL/min/kg | C[C@@H]1Cc2cnc(N3CCN(C[C@H]4CN(c5ccc(C#N)c6ncccc56)C[C@@H](C)O4)CC3)cc2CN1 (single isomer, unassigned) [Example 77]

Reference: patent EP3807270B1, “NOVEL HETEROARYL HETEROCYCLYL COMPOUNDS FOR THE TREATMENT OF AUTOIMMUNE DISEASE” (F. Hoffmann-La Roche AG, priority 2018, dated 2019)
